The results in this text go back to publication PMC9856672, “SGC-CAMKK2-1: A Chemical Probe for CAMKK2” (Cells, 2023).

The target in one assay is T1, PIK3CG (Homo sapiens, UniProt P48736).
T1 construct: purchased Eurofins DiscoverX KINOMEscan
As to the kind of experiment: KINOMEscan 1 μM, PIK3CG. The format is binding. To be noted: 1000 nM; Entrez PIK3CG; read-out: Percent Control. The source says: (§1) Supplement cells-12-00287-s001.zip/File S2. KinomeScan data for the CAMKK2 probe and negative control.xlsx, sheet "SGC-CAMKK2-1" | column: Percent Control

A further assay concerns the target T2, MTOR (Homo sapiens, UniProt P42345).
T2 construct: purchased Eurofins DiscoverX KINOMEscan
The experiment in a line: KINOMEscan 1 μM, MTOR. To be noted: 1000 nM; Entrez MTOR; read-out: Percent Control. In kind it is binding.
Description: as §1

The target in the next assay is T3, TRKA (Homo sapiens, UniProt P04629).
T3 construct: purchased Eurofins DiscoverX KINOMEscan
As to the kind of experiment: DiscoverX KINOMEscan binding assay at 1 μM, TRKA. To be noted: TRKA (NTRK1); Compound Concentration 1000 nM; read-out: Percent Control.
Description: as §1

The target of another assay is T4, HIPK4 (Homo sapiens, UniProt Q8NE63).
T4 construct: purchased Eurofins DiscoverX KINOMEscan
As to the kind of experiment: KINOMEscan 1 μM, HIPK4. In kind it is binding. To be noted: 1000 nM; Entrez HIPK4; read-out: Percent Control.
Description: as §1

Another assay has as its target T5, CSF1R-autoinhibited (Homo sapiens, UniProt P07333).
T5 construct: purchased Eurofins DiscoverX KINOMEscan
As to the kind of experiment: KINOMEscan 1 μM, CSF1R-autoinhibited. In kind it is binding. To be noted: 1000 nM; Entrez CSF1R; read-out: Percent Control.
Description: as §1

The target of another assay is T6, PKAC-alpha (Homo sapiens, UniProt P17612).
T6 construct: purchased Eurofins DiscoverX KINOMEscan
The experiment in a line: DiscoverX KINOMEscan binding assay at 1 μM, PKAC-alpha. To be noted: PKAC-alpha (PRKACA); Compound Concentration 1000 nM; read-out: Percent Control.
Description: as §1

In the next assay the target is T7, EPHB3 (Homo sapiens, UniProt P54753).
T7 construct: purchased Eurofins DiscoverX KINOMEscan
The experiment in a line: KINOMEscan 1 μM, EPHB3. In kind it is binding. To be noted: 1000 nM; Entrez EPHB3; read-out: Percent Control.
Description: as §1

Another assay has as its target T8, STK16 (Homo sapiens, UniProt O75716).
T8 construct: purchased Eurofins DiscoverX KINOMEscan
The experiment in a line: KINOMEscan 1 μM, STK16. The format is binding. To be noted: 1000 nM; Entrez STK16; read-out: Percent Control.
Description: as §1

A further assay deals with T9, ACVRL1 (Homo sapiens, UniProt P37023).
T9 construct: purchased Eurofins DiscoverX KINOMEscan
The experiment in a line: KINOMEscan 1 μM, ACVRL1. The format is binding. To be noted: 1000 nM; Entrez ACVRL1; read-out: Percent Control.
Description: as §1

The target in the next assay is T10, PIK3CA(H1047Y) (Homo sapiens, UniProt P42336, H1047Y).
T10 construct: purchased Eurofins DiscoverX KINOMEscan
As to the kind of experiment: DiscoverX KINOMEscan binding assay at 1 μM, PIK3CA(H1047Y). To be noted: Compound Concentration 1000 nM, read-out: Percent Control.
Description: as §1

The next assay has as its target T11, KIT(V559D,V654A) (Homo sapiens, UniProt P10721, V559D/V654A).
T11 construct: purchased Eurofins DiscoverX KINOMEscan
As to the kind of experiment: KINOMEscan 1 μM, KIT(V559D,V654A). To be noted: 1000 nM; Entrez KIT; read-out: Percent Control. The format is binding.
Description: as §1

The target in a further assay is T12, MARK4 (Homo sapiens, UniProt Q96L34).
T12 construct: purchased Eurofins DiscoverX KINOMEscan
As to the kind of experiment: KINOMEscan 1 μM, MARK4. The format is binding. To be noted: 1000 nM; Entrez MARK4; read-out: Percent Control.
Description: as §1

Another assay concerns the target T13, MST3 (Homo sapiens, UniProt Q9Y6E0).
T13 construct: purchased Eurofins DiscoverX KINOMEscan
As to the kind of experiment: KINOMEscan 1 μM, MST3. In kind it is binding. To be noted: 1000 nM; Entrez STK24; read-out: Percent Control.
Description: as §1

Another assay concerns the target T14, PAK6 (Homo sapiens, UniProt Q9NQU5).
T14 construct: purchased Eurofins DiscoverX KINOMEscan
As to the kind of experiment: KINOMEscan 1 μM, PAK6. In kind it is binding. To be noted: 1000 nM; Entrez PAK6; read-out: Percent Control.
Description: as §1

The target in another assay is T15, ERBB2 (Homo sapiens, UniProt P04626).
T15 construct: purchased Eurofins DiscoverX KINOMEscan
As to the kind of experiment: KINOMEscan 1 μM, ERBB2. In kind it is binding. To be noted: 1000 nM; Entrez ERBB2; read-out: Percent Control.
Description: as §1

Another assay concerns the target T16, PIP5K1A (Homo sapiens, UniProt Q99755).
T16 construct: purchased Eurofins DiscoverX KINOMEscan
As to the kind of experiment: KINOMEscan at 1 μM, PIP5K1A. To be noted: 1000 nM, read-out: Percent Control. The format is binding. From the text: (§2) Supplement cells-12-00287-s001.zip/File S2. KinomeScan data for the CAMKK2 probe and negative control.xlsx, sheet "SGC-CAMKK2-1N" | column: Percent Control

A further assay addresses T17, BUB1 (Homo sapiens, UniProt O43683).
T17 construct: purchased Eurofins DiscoverX KINOMEscan
As to the kind of experiment: KINOMEscan at 1 μM, BUB1. In kind it is binding. To be noted: 1000 nM, read-out: Percent Control.
Description: as §2

The next assay deals with T18, PRKCI (Homo sapiens, UniProt P41743).
T18 construct: purchased Eurofins DiscoverX KINOMEscan
As to the kind of experiment: KINOMEscan at 1 μM, PRKCI. In kind it is binding. To be noted: 1000 nM, read-out: Percent Control.
Description: as §2

Another assay has as its target T19, DRAK2 (Homo sapiens, UniProt O94768).
T19 construct: purchased Eurofins DiscoverX KINOMEscan
The experiment in a line: KINOMEscan at 1 μM, DRAK2. In kind it is binding. To be noted: 1000 nM, read-out: Percent Control.
Description: as §2

For the next assay, the target named is T20, HPK1 (Homo sapiens, UniProt Q92918).
T20 construct: purchased Eurofins DiscoverX KINOMEscan
As to the kind of experiment: KINOMEscan binding assay at 1 μM, HPK1. To be noted: Compound Concentration 1000 nM; read-out: Percent Control.
Description: as §2

The target of a further assay is T21, EGFR(L858R,T790M) (Homo sapiens, UniProt P00533, L858R/T790M).
T21 construct: purchased Eurofins DiscoverX KINOMEscan
As to the kind of experiment: KINOMEscan at 1 μM, EGFR(L858R,T790M). The format is binding. To be noted: 1000 nM, read-out: Percent Control.
Description: as §2

The target in the next assay is T22, PYK2 (Homo sapiens, UniProt Q14289).
T22 construct: purchased Eurofins DiscoverX KINOMEscan
As to the kind of experiment: KINOMEscan at 1 μM, PYK2. The format is binding. To be noted: 1000 nM, read-out: Percent Control.
Description: as §2

A further assay addresses T23, ZAK (Homo sapiens, UniProt Q9NYL2).
T23 construct: purchased Eurofins DiscoverX KINOMEscan
The experiment in a line: KINOMEscan at 1 μM, ZAK. The format is binding. To be noted: 1000 nM, read-out: Percent Control.
Description: as §2

Assay [1] concerns the target T24, ABL1(Y253F)-phosphorylated (Homo sapiens, UniProt P00519, Y253F).
T24 construct: purchased Eurofins DiscoverX KINOMEscan
As to the kind of experiment: KINOMEscan at 1 μM, ABL1(Y253F)-phosphorylated. In kind it is binding. To be noted: 1000 nM, read-out: Percent Control.
Description: as §2

The target in the next assay is T25, CSF1R (Homo sapiens, UniProt P07333).
T25 construct: purchased Eurofins DiscoverX KINOMEscan
The experiment in a line: KINOMEscan at 1 μM, CSF1R. In kind it is binding. To be noted: 1000 nM, read-out: Percent Control.
Description: as §2

The target of another assay is T26, PKN2 (Homo sapiens, UniProt Q16513).
T26 construct: purchased Eurofins DiscoverX KINOMEscan
The experiment in a line: KINOMEscan at 1 μM, PKN2. The format is binding. To be noted: 1000 nM, read-out: Percent Control.
Description: as §2

For the next assay, the target named is T27, ACVR2B (Homo sapiens, UniProt Q13705).
T27 construct: purchased Eurofins DiscoverX KINOMEscan
The experiment in a line: KINOMEscan at 1 μM, ACVR2B. The format is binding. To be noted: 1000 nM, read-out: Percent Control.
Description: as §2

Another assay concerns the target T28, EPHA7 (Homo sapiens, UniProt Q15375).
T28 construct: purchased Eurofins DiscoverX KINOMEscan
The experiment in a line: KINOMEscan binding assay at 1 μM, EPHA7. To be noted: Compound Concentration 1000 nM; read-out: Percent Control.
Description: as §2

Another assay concerns the target T29, EPHB4 (Homo sapiens, UniProt P54760).
T29 construct: purchased Eurofins DiscoverX KINOMEscan
The experiment in a line: KINOMEscan at 1 μM, EPHB4. In kind it is binding. To be noted: 1000 nM, read-out: Percent Control.
Description: as §2

In the next assay the target is T30, DAPK1 (Homo sapiens, UniProt P53355).
T30 construct: purchased Eurofins DiscoverX KINOMEscan
The experiment in a line: KINOMEscan at 1 μM, DAPK1. The format is binding. To be noted: 1000 nM, read-out: Percent Control.
Description: as §2

For another assay, the target named is T31, ACVR2A (Homo sapiens, UniProt P27037).
T31 construct: purchased Eurofins DiscoverX KINOMEscan
The experiment in a line: KINOMEscan at 1 μM, ACVR2A. In kind it is binding. To be noted: 1000 nM, read-out: Percent Control.
Description: as §2

A further assay has as its target T32, YSK1 (Homo sapiens, UniProt O00506).
T32 construct: purchased Eurofins DiscoverX KINOMEscan
As to the kind of experiment: KINOMEscan at 1 μM, YSK1. In kind it is binding. To be noted: 1000 nM, read-out: Percent Control.
Description: as §2

The next assay has as its target T33, TNK1 (Homo sapiens, UniProt Q13470).
T33 construct: purchased Eurofins DiscoverX KINOMEscan
The experiment in a line: KINOMEscan binding assay at 1 μM, TNK1. To be noted: Compound Concentration 1000 nM; read-out: Percent Control.
Description: as §2

The structures appear in SMILES notation.

T16 sequence (Q99755 whole entry): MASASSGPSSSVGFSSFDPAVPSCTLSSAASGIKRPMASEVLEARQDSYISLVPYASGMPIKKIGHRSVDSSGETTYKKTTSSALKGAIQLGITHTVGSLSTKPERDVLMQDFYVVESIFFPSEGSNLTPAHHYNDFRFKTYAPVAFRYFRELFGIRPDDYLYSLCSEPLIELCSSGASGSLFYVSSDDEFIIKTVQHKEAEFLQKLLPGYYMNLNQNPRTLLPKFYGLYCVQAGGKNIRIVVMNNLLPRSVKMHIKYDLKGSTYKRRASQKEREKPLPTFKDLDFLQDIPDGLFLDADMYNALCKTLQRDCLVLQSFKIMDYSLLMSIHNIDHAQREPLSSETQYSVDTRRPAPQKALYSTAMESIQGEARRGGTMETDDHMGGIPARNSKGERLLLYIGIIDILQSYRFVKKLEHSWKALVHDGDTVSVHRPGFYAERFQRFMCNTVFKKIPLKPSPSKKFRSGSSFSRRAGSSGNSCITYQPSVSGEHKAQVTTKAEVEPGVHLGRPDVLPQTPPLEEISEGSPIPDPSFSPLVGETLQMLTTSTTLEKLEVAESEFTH
T20 sequence (Q92918 whole entry): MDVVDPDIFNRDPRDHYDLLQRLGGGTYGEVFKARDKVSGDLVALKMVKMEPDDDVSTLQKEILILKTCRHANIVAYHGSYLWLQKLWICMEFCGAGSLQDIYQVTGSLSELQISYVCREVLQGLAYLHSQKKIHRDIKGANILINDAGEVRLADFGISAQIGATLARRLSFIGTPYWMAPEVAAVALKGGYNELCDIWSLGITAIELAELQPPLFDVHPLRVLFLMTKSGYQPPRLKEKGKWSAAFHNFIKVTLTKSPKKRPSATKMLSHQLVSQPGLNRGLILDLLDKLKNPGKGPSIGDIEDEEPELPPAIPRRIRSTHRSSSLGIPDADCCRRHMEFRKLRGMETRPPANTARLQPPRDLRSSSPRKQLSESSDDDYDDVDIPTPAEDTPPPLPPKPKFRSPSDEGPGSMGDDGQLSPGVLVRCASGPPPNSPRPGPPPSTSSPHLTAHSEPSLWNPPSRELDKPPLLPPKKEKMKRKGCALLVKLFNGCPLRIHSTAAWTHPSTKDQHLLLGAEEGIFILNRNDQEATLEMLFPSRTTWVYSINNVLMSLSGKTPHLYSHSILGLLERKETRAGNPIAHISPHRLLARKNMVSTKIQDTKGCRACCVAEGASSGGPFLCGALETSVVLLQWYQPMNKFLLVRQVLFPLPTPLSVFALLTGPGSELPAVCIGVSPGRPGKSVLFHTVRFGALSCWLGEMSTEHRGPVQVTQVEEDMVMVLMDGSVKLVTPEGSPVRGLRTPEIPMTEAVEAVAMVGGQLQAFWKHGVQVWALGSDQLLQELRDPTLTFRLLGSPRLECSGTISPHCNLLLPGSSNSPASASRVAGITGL
T3 sequence (P04629 33-796): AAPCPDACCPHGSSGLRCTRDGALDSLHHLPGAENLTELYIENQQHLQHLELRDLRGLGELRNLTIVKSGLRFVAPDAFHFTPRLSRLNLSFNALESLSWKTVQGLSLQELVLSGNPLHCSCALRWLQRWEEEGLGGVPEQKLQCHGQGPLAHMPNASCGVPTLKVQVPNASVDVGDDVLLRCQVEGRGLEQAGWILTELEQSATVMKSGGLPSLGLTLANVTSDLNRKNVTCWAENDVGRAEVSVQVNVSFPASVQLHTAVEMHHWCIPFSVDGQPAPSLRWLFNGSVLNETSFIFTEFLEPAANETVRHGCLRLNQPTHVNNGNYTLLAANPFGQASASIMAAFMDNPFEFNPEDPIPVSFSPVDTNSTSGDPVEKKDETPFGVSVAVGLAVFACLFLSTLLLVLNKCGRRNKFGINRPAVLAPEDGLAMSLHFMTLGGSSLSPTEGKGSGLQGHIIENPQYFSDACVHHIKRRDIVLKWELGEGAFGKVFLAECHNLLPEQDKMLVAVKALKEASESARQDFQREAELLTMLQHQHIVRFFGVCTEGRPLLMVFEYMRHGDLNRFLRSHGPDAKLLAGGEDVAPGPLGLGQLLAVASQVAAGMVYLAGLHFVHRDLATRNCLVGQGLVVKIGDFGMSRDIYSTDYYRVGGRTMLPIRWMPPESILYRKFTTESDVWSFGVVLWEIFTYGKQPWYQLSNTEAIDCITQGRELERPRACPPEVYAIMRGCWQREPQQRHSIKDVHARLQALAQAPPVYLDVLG
T8 sequence (O75716 whole entry): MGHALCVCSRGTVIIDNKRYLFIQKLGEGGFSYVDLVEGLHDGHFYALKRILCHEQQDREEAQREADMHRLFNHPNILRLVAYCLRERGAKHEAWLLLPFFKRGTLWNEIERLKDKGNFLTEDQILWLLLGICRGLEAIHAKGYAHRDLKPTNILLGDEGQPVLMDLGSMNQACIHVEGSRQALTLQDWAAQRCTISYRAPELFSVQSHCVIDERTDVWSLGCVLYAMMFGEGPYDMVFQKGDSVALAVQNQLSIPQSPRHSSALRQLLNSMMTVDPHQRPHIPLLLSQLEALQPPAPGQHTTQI
T25 sequence (P07333 20-972): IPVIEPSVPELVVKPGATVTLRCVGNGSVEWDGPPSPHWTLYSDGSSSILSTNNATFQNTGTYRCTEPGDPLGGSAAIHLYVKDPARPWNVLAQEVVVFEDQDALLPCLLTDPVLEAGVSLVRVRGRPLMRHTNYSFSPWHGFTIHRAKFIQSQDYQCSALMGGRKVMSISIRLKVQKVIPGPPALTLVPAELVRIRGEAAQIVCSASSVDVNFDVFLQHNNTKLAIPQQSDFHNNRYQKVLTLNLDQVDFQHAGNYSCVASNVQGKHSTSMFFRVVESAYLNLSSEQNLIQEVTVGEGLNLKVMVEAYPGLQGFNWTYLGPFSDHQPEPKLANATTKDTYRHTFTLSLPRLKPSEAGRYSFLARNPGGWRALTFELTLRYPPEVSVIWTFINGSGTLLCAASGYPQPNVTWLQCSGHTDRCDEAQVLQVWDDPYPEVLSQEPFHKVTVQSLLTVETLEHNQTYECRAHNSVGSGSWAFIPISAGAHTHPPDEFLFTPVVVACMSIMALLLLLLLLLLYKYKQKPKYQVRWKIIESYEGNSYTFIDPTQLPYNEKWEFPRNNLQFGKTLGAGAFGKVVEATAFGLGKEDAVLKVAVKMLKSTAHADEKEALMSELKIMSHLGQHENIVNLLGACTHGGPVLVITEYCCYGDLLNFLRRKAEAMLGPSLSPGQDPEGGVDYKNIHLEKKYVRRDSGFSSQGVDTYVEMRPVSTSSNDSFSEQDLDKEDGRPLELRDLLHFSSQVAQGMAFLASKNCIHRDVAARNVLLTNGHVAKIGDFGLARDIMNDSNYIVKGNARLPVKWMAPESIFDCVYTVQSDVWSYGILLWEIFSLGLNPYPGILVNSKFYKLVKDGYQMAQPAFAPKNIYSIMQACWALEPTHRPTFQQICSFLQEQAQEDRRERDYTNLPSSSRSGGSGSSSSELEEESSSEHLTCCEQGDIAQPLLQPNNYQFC
T5 sequence (P07333 20-972): as above
T9 sequence (P37023 22-503): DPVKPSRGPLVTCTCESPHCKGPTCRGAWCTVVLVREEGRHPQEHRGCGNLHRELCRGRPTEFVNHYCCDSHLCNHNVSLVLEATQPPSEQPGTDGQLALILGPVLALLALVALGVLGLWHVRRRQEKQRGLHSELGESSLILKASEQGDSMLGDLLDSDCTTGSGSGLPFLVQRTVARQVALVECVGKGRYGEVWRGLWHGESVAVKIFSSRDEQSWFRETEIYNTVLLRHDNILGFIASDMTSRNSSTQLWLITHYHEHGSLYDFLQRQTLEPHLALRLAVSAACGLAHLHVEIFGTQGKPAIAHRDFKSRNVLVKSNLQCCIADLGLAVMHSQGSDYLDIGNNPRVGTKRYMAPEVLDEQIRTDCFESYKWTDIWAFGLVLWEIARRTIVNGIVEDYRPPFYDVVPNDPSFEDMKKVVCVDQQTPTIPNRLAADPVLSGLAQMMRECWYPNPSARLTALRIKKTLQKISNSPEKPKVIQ
T29 sequence (P54760 16-987): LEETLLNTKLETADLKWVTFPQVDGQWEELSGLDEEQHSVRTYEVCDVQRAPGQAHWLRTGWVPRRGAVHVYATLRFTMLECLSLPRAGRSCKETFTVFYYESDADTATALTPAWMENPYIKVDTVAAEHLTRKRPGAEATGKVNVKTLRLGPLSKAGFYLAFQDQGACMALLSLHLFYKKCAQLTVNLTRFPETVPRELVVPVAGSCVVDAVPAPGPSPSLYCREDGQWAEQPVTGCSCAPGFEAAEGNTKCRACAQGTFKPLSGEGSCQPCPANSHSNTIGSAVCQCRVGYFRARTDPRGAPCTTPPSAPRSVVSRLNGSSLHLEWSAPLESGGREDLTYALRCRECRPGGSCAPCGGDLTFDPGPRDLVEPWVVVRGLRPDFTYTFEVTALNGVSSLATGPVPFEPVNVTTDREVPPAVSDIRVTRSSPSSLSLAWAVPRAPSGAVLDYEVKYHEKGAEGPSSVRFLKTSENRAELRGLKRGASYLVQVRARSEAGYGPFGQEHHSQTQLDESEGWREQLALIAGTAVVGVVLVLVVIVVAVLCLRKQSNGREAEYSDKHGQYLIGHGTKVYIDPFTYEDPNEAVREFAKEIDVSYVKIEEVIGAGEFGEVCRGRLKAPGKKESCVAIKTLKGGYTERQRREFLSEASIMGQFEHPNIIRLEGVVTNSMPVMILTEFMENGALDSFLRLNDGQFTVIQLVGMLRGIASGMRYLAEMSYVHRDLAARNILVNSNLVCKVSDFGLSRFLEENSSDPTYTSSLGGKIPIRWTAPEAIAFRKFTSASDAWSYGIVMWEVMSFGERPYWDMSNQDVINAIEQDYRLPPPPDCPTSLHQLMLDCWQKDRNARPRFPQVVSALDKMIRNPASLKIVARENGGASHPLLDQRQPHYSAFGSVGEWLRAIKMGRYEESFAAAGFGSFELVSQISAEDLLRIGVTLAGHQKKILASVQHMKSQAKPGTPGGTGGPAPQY

`Cc1cccc(-c2cnc3occ(-c4ccc(C(=O)O)c(C5CCCC5)c4)c3c2)c1` [SGC-CAMKK2-1 (YL-36)]: the remaining binding at 1 µM on PIK3CG turned out to be 76%; at MTOR, 98%; on TRKA it was 100%; at HIPK4, 100%; at CSF1R-autoinhibited, 85%; at PKAC-alpha it was 100%. Moreover, the remaining binding at 1 µM came out at 96% on EPHB3; 93% at STK16; 100% at ACVRL1; 100% at PIK3CA(H1047Y); 100% on KIT(V559D,V654A); 100% at MARK4. The remaining binding at 1 µM was determined as 100% on MST3, 67% at PAK6 and 100% at ERBB2.

Turning to `O=C(O)c1ccc(-c2coc3ncc(-c4ccccc4)cc23)cc1Cl` [SGC-CAMKK2-1N (UNC-YL-83)], the remaining binding at 1 µM on PIP5K1A worked out at 87%; at BUB1, 79%; at PRKCI, 79%; at DRAK2 it was 90%; on HPK1, 100%; at EGFR(L858R,T790M), 83%. The remaining binding at 1 µM at PYK2 was determined as 96%; at ZAK, 69%; in assay [1], 69%; at CSF1R, 100%; on PKN2 it was 83%; on ACVR2B, 66%. For the same compound, the remaining binding at 1 µM at EPHA7 is 100%; at EPHB4, 56%; at DAPK1, 100%; at ACVR2A it was 72%; on YSK1 it was 66%; on TNK1 it was 100%.
